From patent US10280171B2, “Heterocyclic inhibitors of PTPN11” (priority 2016, dated 2019)
Where a name gives a salt, the structure may show the parent alone. Read-outs that look alike come from different tables or passages of the source.

Columns and labels:
[1] = target: PTPN11-E76K mutant enzyme (Homo sapiens (Human), UniProt Q06124, E76K); test: PTPN11 Enzymatic Assay (DiFMUP phosphatase activity); assay type: biochemical; conditions: DiFMUP 50 μM, 30 min preincubation
Protocol: Reaction was initiated by addition of DiFMUP (50 μM) at room temperature in 384-well black plate with a final reaction volume of 20 uL in assay buffer. […] Dose-response curves were analyzed using IC50 regression curve fitting (GeneData Screener). Curves were normalized to a high controls without inhibitor, and low controls without enzyme.

[2] = tested on: Phospho-ERK levels in KYSE-520 cells; test: pERK AlphaScreen Protocol; assay type: cell-based; conditions: read-out: PERK Avg IC50
Protocol: KYSE-520 cells (10 k cells/well) were grown in 384-well plate in 20 uL of medium (RPMI-1640, without phenol red, containing 10% FBS) at 37° C. with 5% CO2 overnight. DMSO (control) or increasing concentrations of compounds were diluted in medium, added to the 384-well plate (5 uL/well, final DMSO concentration of 1%), and cells were then incubated with compounds for 2 hr. Phospho-ERK levels were measured using phospho-ERK1/2 AlphaScreen SureFire (PerkinElmer, TGRESB10K) following manufacturer's recommendations. Dose-response curves were analyzed using IC50 regression curve fitting (GeneData Screener). Curves were normalized to a high control without inhibitor (DMSO only), and low control (1 μM selumetinib).

[3] = full length PTPN11-E76K mutant enzyme 250 pM, read-out: PTPN11-E76K Avg IC50
[4] = Homo sapiens, KYSE-520, 2 h, KYSE-520 cells, 2 hr compound incubation, phospho-ERK1/2 AlphaScreen SureFire
[5] = PTPN11-E76K Avg IC50, full length PTPN11-E76K mutant enzyme 250 pM
[6] = KYSE-520 cells, 2 hr compound incubation, phospho-ERK1/2 AlphaScreen SureFire

Chain of PTPN11-E76K mutant enzyme (Q06124 whole entry E76K): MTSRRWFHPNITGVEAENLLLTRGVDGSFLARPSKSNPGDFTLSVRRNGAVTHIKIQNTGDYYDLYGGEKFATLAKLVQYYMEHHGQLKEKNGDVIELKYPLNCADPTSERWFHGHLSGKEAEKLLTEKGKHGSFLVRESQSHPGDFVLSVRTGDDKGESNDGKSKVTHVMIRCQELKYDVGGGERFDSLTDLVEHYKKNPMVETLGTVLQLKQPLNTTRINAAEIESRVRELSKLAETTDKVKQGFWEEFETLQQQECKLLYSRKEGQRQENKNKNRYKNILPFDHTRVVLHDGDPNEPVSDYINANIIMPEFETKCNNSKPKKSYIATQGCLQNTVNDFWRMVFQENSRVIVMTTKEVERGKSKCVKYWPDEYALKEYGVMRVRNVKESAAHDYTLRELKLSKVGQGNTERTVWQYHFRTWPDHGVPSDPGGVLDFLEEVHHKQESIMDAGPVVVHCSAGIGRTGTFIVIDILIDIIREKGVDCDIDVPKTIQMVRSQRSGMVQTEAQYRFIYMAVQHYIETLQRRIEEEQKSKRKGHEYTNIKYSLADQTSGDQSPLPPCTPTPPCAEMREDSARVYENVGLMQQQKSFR

SMILES	IC50 [1, 3] [nM]	IC50 [2, 4] [nM]	IC50 [1, 5] [nM]	IC50 [2, 6] [nM]	IC50 ([2]; Homo sapiens, KYSE-520, 2 h) [nM]
CC1(N)CCN(c2cnc3c(-c4ccc(F)c(Cl)c4)n[nH]c3n2)CC1 [Example 19, 1-(3-(3-Chloro-4-fluorophenyl)-1H-pyrazolo[3,4-b]-pyrazin-6-yl)-4-methylpiperidin-4-amine]	510	534	–	–	–
N[C@@H]1COCC12CCN(c1cnc3c(-c4ccccc4Cl)n[nH]c3n1)CC2 [Example 39, (S)-8-(3-(2-chloro-phenyl)-1H-pyrazolo[3,4-b]-pyrazin-6-yl)-2-oxa-8-azaspiro[4.5]-decan-4-amine]	158	103	–	–	–
NCC1(O)CCN(c2cnc3c(-c4ccnc(O)c4Cl)n[nH]c3n2)CC1 [Example 120, 4-(6-(4-(Aminomethyl)-4-hydroxypiperidin-1-yl)-1H-pyrazolo[3,4-b]pyrazin-3-yl)-3-chloropyridin-2-ol]	5370	9700	–	–	–
CC1(CN)CCN(c2cnc3c(-c4cn[nH]c4C(F)(F)F)n[nH]c3n2)CC1 [Example 103, (4-Methyl-1-(3-(5-(trifluoromethyl)-1H-pyrazol-4-yl)-1H-pyrazolo[3,4-b]-pyrazine-6-yl)piperidin-4-yl)methanamine]	2600	1630	–	–	–
CC1(CN)CCN(c2cnc3c(-c4cc(N)ncc4Cl)n[nH]c3n2)CC1 [Example 133, 4-{6-[4-(amino-methyl)-4-methyl-piperidin-1-yl]-1H-pyrazolo[3,4-b]-pyrazin-3-yl}-5-chloropyridin-2-amine]	840	533	–	–	–
N[C@@H]1CCCC12CCN(c1cnc3c(-c4cn[nH]c4C(F)(F)F)n[nH]c3n1)CC2 [Example 102, (R)-8-(3-(5-(Trifluoromethyl)-1H-pyrazol-4-yl)-1H-pyrazolo[3,4-b]pyrazin-6-yl)-8-azaspiro[4.5]decan-1-amine]	2150	1180	–	–	–
NCC1(O)CCN(c2cnc3c(-c4cc(N)ncc4Cl)n[nH]c3n2)CC1 [Example 134, 1-[3-(2-amino-5-chloropyridin-4-yl)-1H-pyrazolo[3,4-b]-pyrazin-6-yl]-4-(aminomethyl)-piperidin-4-ol]	1530	2010	–	–	–
Clc1cccc(-c2n[nH]c3nc(N4CCC5(CCN5)CC4)cnc23)c1Cl [Example 7, 3-(2,3-dichloro-phenyl)-6-(1,7-diaza-spiro[3.5]nonan-7-yl)-1H-pyrazolo[3,4-b]pyrazine]	196	79	–	–	–
COc1cc(-c2n[nH]c3nc(N4CCC(C)(CN)CC4)cnc23)ccc1Cl [Example 33, (1-(3-(4-Chloro-3-methoxyphenyl)-1H-pyrazolo[3,4-b]pyrazin-6-yl)-4-methylpiperidin-4-yl)methanamine]	72	96	–	–	–
COc1cccc(-c2n[nH]c3nc(N4CCC5(CCC[C@H]5N)CC4)cnc23)c1Cl [Example 50, (R)-8-(3-(2-chloro-3-methoxyphenyl)-1H-pyrazolo[3,4-b]pyrazin-6-yl)-8-azaspiro[4.5]decan-1-amine]	39	34	–	–	–
CC1(N)CCN(c2cnc3c(-c4ccnc(N)c4Cl)n[nH]c3n2)CC1 [Example 106, 4-(6-(4-Amino-4-methylpiperidin-1-yl)-1H-pyrazolo[3,4-b]pyrazine-3-yl)-3-chloropyridin-2-amine]	253	174	–	–	–
N[C@@H]1COCC12CCN(c1cnc3c(-c4c(F)cccc4Cl)n[nH]c3n1)CC2 [Example 40, (4S)-8-(3-(2-Chloro-6-fluorophenyl)-1H-pyrazolo[3,4-b]-pyrazin-6-yl)-2-oxa-8-azaspiro[4.5]-decan-4-amine]	203	186	–	–	–
NC1(CO)CCN(c2cnc3c(-c4ccnc(O)c4Cl)n[nH]c3n2)CC1 [Example 110, 4-(6-(4-Amino-4-(hydroxymethyl)piperidin-1-yl)-1H-pyrazolo[3,4-b]pyrazin-3-yl)-3-chloropyridin-2-ol]	3680	7850	–	–	–
Cc1ncccc1-c1n[nH]c2nc(N3CCC(C)(CN)CC3)cnc12 [Example 30, (4-methyl-1-(3-(2-methylpyridin-3-yl)-1H-pyrazolo[3,4-b]pyrazin-6-yl)-piperidin-4-yl) methanamine]	2510	1600	–	–	–
NC1C(F)CCC12CCN(c1cnc3c(-c4cccc(Cl)c4Cl)n[nH]c3n1)CC2 (single isomer, unassigned; isomer a) [Example 64A, 8-(3-(2,3-Dichlorophenyl)-1H-pyrazolo[3,4-b]pyrazin-6-yl)-2-fluoro-8-azaspiro[4.5]decan-1-amine, isomer A]	–	–	98	34	–
CC1(CN)CCN(c2cnc3c(-c4ccnc(O)c4Cl)n[nH]c3n2)CC1 [Example 118, 4-(6-(4-(Aminomethyl)-4-methylpiperidin-1-yl)-1H-pyrazolo[3,4-b]pyrazin-3-yl)-3-chloropyridin-2-ol]	1130	8280	–	–	–
N[C@@H]1CCCC12CCN(c1cnc3c(-c4ccccc4Cl)n[nH]c3n1)CC2 [Example 54, (R)-8-(3-(2-chlorophenyl)-1H-pyrazolo[3,4-b]-pyrazin-6-yl)-8-aza-spiro[4.5]decan-1-amine]	119	64	–	–	–
N[C@@H]1CCCC12CCN(c1cnc3c(-c4ccnc(O)c4Cl)n[nH]c3n1)CC2 [Example 108, (R)-4-(6-(1-Amino-8-azaspiro[4.5]decan-8-yl)-1H-pyrazolo[3,4-b]pyrazin-3-yl)-3-chloropyridin-2-ol trifluoroacetate]	726	–	–	–	6800
CC1(N)CCN(c2cnc3c(-c4cc(N)ncc4Cl)n[nH]c3n2)CC1 [Example 138, 4-[6-(4-amino-4-methylpiperidin-1-yl)-1H-pyrazolo[3,4-b]pyrazin-3-yl]-5-chloropyridin-2-amine]	587	406	–	–	–
CC1(CN)CCN(c2cnc3c(-c4ccccc4Cl)n[nH]c3n2)CC1 [Example 29]	178	87	–	–	–
Nc1nccc(-c2n[nH]c3nc(N4CCC5(CCC[C@H]5N)CC4)cnc23)c1Cl [Example 130, (1R)-8-[3-(2-amino-3-chloropyridin-4-yl)-1H-pyrazolo[3,4-b]pyrazin-6-yl]-8-azaspiro[4.5]decan-1-amine]	83	65	–	–	–
CC1(CN)CCN(c2cnc3c(-c4cccc(N)c4Cl)n[nH]c3n2)CC1 [Example 132, 3-{6-[4-(amino-methyl)-4-methyl-piperidin-1-yl]-1H-pyrazolo[3,4-b]-pyrazin-3-yl}-2-chloroaniline]	119	63	–	–	–
NC1C(F)CCC12CCN(c1cnc3c(-c4cccc(Cl)c4Cl)n[nH]c3n1)CC2 (single isomer, unassigned) [Example 64B, 8-(3-(2,3-Dichlorophenyl)-1H-pyrazolo[3,4-b]pyrazin-6-yl)-2-fluoro-8-azaspiro[4.5]decan-1-amine]	–	–	221	70	–
CNc1nccc(-c2n[nH]c3nc(N4CCC(C)(CN)CC4)cnc23)c1Cl [Example 104, 4-(6-(4-(Aminomethyl)-4-methylpiperidin-1-yl)-1H-pyrazolo[3,4-b]pyrazin-3-yl)-3-chloro-N-methylpyridin-2-amine]	99	47	–	–	–
CC1(N)CCN(c2cnc3c(-c4cccc(N)c4Cl)n[nH]c3n2)CC1 [Example 105, 1-(3-(3-amino-2-chlorophenyl)-1H-pyrazolo[3,4-b]pyrazin-6-yl)-4-methylpiperidin-4-amine]	191	120	–	–	–
